Key:
[1] = tested on: E. coli strains used for in vivo assays; assay: E. coli growth curves; format: cell-based; conditions: for impact on growth of the cells: minimal medium
Protocol: Strains SME3634 and SME3359 were grown overnight (˜16 hr) at 37° C. in MOPS-buffered minimal medium. Overnight grown cultures were diluted into the same medium plus rhamnose to an O.D600 of 0.1, and IPTG was added. 1 mL aliquots of the cultures were added to wells of a 24-well plate, with the addition of either 44 μM Compound 1 (dissolved in 100% DMSO) or an equal volume of 100% DMSO. Growth was monitored at 20 min intervals for approximately 8 hr. at 37° C. with continuous shaking in a PowerWave XS plate reader (BioTek Instruments, Inc., Winooski, Vt.). Error bars represent the standard error of the mean.
To test the impact of SE-1 on growth of the bacterial strains used for in vivo dose-response assays (SME4382 and SME3359), we compared growth rates in the presence and absence of SE-1, without addition of rhamnose. Briefly, the cells were grown at 37° C. with shaking in MOPS-buffered minimal medium with glycerol and plus 6.5 mM IPTG, in 24-well plates, with or without: SE-1 (44 uM SE-1, 0.3% DMSO), or DMSO (0.3%) in a PowerWave XS plate reader equipped with KC^4 data analysis software (BioTek Instruments).

icsB = assay: Shigella gene expression qRT-PCR, icsB; format: cell-based, S. flexneri; conditions: for Average ΔΔCt / Ct / RQ (2^−ΔΔCt) / ΔΔCt^1 (normalized to gapA) / ΔΔCt^2 (normalized to rrsA): icsB, example data
Protocol: Real-time quantitative reverse transcription PCR (qRT-PCR) was performed to test the effects of SE-1 on the expression of the VirF regulated genes virB, icsA, icsB and ipaB. The gapA and rrsA transcripts were used as internal controls. These are constitutively expressed Shigella genes commonly used to normalize mRNA levels. S. flexneri strain SME4331, which carries a null mutation in ipgD (ipgD), was grown at 30° C. overnight in TSB with ampicillin, diluted into the same medium to an OD600 of ˜0.1, and 1 ml aliquots further grown at 30° C. (DMSO only) or at 37° C. (SE-1 at 20 or 40 μM, or DMSO only, all 0.3% DMSO). Cells were grown to an OD600 of 1.0 (˜2.5 h) and RNA was isolated using an RNeasy MiniElute Cleanup Kit (Qiagen, Germantown, Md.), with DNA contamination eliminated using a Turbo DNase Kit (Ambion, Austin, Tex.). Complementary DNA (cDNA) was synthesized by random priming using a cDNA Reverse Transcription Kit (Applied Biosystems, Foster City, Calif.). Primers were tested for PCR specificity using genomic DNA template to ensure a single amplicon of the expected size for each primer pair, and validated using 5-fold dilutions of cDNA (2000 to 0.0256 ng) to ensure a linear plot of cycle threshold (Ct) versus cDNA concentration. Validated primer sets were used to test mRNA profiles in reactions that contained 10 ng of cDNA, 10 μl of SYBR green master mix (Applied Biosystems), specific primers (0.5 μM each) and water to a final volume of 20 μl, using a Step One Plus Real-Time PCR System (Applied Biosystems). The data was analyzed using the 2^−ΔΔCt method, and also by Applied Biosystems real-time analysis software. […] In brief, ΔΔCt values [ΔΔCt=(Ct,Target−Ct,Internal Control)SE-1−(Ct,Target−Ct,Internal Control)no SE-1] were separately obtained for each sample relative to two internal controls, gapA and rrsA. The ΔΔCt values relative to the two internal controls for each sample were averaged and then used to calculate the relative expression levels (2^−ΔΔCt). As a control, we also normalized each internal control to the other internal control. Control reactions used templates generated without reverse transcriptase to ensure low genomic DNA contamination. To ensure that products were not likely to be due to primer dimer artifacts, additional control samples were performed in which reaction mixtures contained primers alone (no template).

Structure (SMILES): CCCCN1C=C(c2ccc3ccccc3n2)C(C[N+](=O)[O-])c2ccccc21 (centres unmarked) [Compound 1, 1-butyl-4-(nitromethyl)-3-quinolin-2-yl-4H-quinoline]
- effect on growth of either strain ([1]; 44 uM, SME4382 and SME3359, 8 h at 37° C.): no detectable effect
- impact on growth of the cells ([1]; 44 μM, strains with RhaS-activated and LacI-repressed fusions (SME3634, SME3359)): no impact
- impact on growth of the cells ([1]; strains with VirF/Rns-activated and LacI-repressed reporter fusions): no impact
- reduction of icsB expression (icsB; 40 μM SE-1, P<0.05): two-fold reduction
- Average ΔΔCt (icsB; SE-1 20 μM): −0.06
- Ct (icsB; SE-1 20 μM): 26.25
- RQ (2^−ΔΔCt) (icsB; SE-1 20 μM): 1.04
- ΔΔCt^1 (normalized to gapA) (icsB; SE-1 20 μM): −0.56
- ΔΔCt^2 (normalized to rrsA) (icsB; SE-1 20 μM): 0.44
- Average ΔΔCt (icsB; SE-1 40 μM): 1.14
- Ct (icsB; SE-1 40 μM): 27.04
- RQ (2^−ΔΔCt) (icsB; SE-1 40 μM): 0.45
- ΔΔCt^1 (normalized to gapA) (icsB; SE-1 40 μM): 0.80
- ΔΔCt^2 (normalized to rrsA) (icsB; SE-1 40 μM): 1.49

— patent publication US20140088144A1, “INHIBITING MICROBIAL INFECTIONS” (THE UNIVERSITY OF KANSAS, priority 2012, published 2014)
